Tests used:
[1] = system: Surinam grass; test: Test B pre-/postemergence herbicide test; type: in vivo, Urochloa decumbens; conditions: for Plant response rating (0 to 100 scale), Surinam Grass: 0 is no effect
Method in brief: (§1)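 Response was scored visually 13 to 15 days after treatment against untreated greenhouse controls, 0 meaning no effect and 100 complete control. Formulations (solvent mixture plus surfactant) went onto soil after planting, onto foliage of 1- to 4-leaf plants, and onto 2-leaf plants in a flooded paddy set including rice and barnyardgrass.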

[2] = system: cocklebur; test: Test B pre-/postemergence herbicide test; type: in vivo, Xanthium strumarium
Method in brief: (§2)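 Species tested were Echinochloa crus-galli, Ipomoea coccinea, Xanthium strumarium and Oryza sativa, treated both before emergence and at the 1- to 4-leaf stage; rice and barnyardgrass were also tested under flooding at 2 leaves. Greenhouse incubation lasted 13–15 days before visual 0–100 scoring.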

[3] = system: corn; test: Test B pre-/postemergence herbicide test; type: in vivo, Zea mays
Method in brief: as §1

[4] = system: large crabgrass; test: Test B pre-/postemergence herbicide test; type: in vivo, Digitaria sanguinalis
Method in brief: as §1

[5] = system: giant foxtail; test: Test B pre-/postemergence herbicide test; type: in vivo, Setaria faberi
Method in brief: as §1

[6] = system: lambsquarters; test: Test B pre-/postemergence herbicide test; type: in vivo, Chenopodium album; conditions: for Plant response rating (0 to 100 scale), Lambsquarters: 0 is no effect
Method in brief: as §1

[7] = system: morningglory; test: Test B pre-/postemergence herbicide test; type: in vivo, Ipomoea coccinea; conditions: for Plant response rating (0 to 100 scale), Morningglory: 0 is no effect
Method in brief: as §2

[8] = system: pigweed; test: Test B pre-/postemergence herbicide test; type: in vivo, Amaranthus retroflexus; conditions: for Plant response rating (0 to 100 scale), Pigweed: 0 is no effect
Method in brief: as §1

[9] = system: velvetleaf; test: Test B pre-/postemergence herbicide test; type: in vivo, Abutilon theophrasti; conditions: for Plant response rating (0 to 100 scale), Velvetleaf: 0 is no effect
Method in brief: as §1

[10] = system: blackgrass; test: Test B postemergence herbicide test; type: in vivo, Alopecurus myosuroides
Method in brief: (§3)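 Plants grow to 1- to 4-leaf stage (2–18 cm) for postemergence spraying, or to 2-leaf stage for the paddy test. Formulated compound is applied. Greenhouse holding lasts 13–15 days. Response is scored visually relative to controls, 0 no effect to 100 complete control; a dash means no result.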

[11] = system: wheat; test: Test B postemergence herbicide test; type: in vivo, Triticum aestivum; parameters: key to Wheat plant response rating: 0 = no effect, 100 = complete control
Method in brief: (§4)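 Formulated test chemicals went onto postemergence plants measuring 2 to 18 cm, at one to four leaves. For the paddy assay, species had reached two leaves. Scoring took place 13–15 days later by eye, relative to untreated plants, using 0 for no effect up to 100 for full control.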

[12] = system: wild oat; test: Test B postemergence herbicide test; type: in vivo, Avena fatua
Method in brief: as §4

[13] = system: rice; test: Test B flooded paddy test; type: in vivo, Oryza sativa; conditions: 1000 g ai/ha, scale 0 to 100 (0 no effect, 100 complete control)
Method in brief: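 Postemergence plants were sprayed with formulated test chemicals at 2 to 18 cm height (1- to 4-leaf stage); paddy species were grown to the 2-leaf stage. After 13 to 15 days in a greenhouse, injury was rated visually against untreated controls on a 0–100 scale (0 = no effect, 100 = complete control).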

[14] = system: small flower umbrella sedge; test: Test B flooded paddy test; type: in vivo, Cyperus difformis; conditions: 1000 g ai/ha, scale 0 to 100 (0 no effect, 100 complete control)
Method in brief: as §3

[15] = system: barnyardgrass; test: Test B flooded paddy test; type: in vivo, Echinochloa crus-galli; conditions: 1000 g ai/ha, scale 0 to 100 (0 no effect, 100 complete control)
Method in brief: as §3

[16] = 125 g ai/ha, 100 is complete control, preemergence
[17] = 125 g ai/ha, visual rating, scale 0 (no effect) to 100 (complete control), postemergence
[18] = 500 g ai/ha, visual rating, 0 = no effect, 100 = complete control, preemergence
[19] = postemergence, 500 g ai/ha, scale 0 to 100, 0 is no effect, 100 is complete control
[20] = 125 g ai/ha; 0 is no effect, 100 is complete control; preemergence
[21] = 125 g ai/ha; visual rating, scale 0 (no effect) to 100 (complete control); postemergence
[22] = 500 g ai/ha; visual rating, 0 = no effect, 100 = complete control; preemergence
[23] = postemergence, 500 g ai/ha; scale 0 to 100, 0 is no effect, 100 is complete control
[24] = Postemergence, 500 g ai/ha, scale 0 (no effect) to 100 (complete control)
[25] = 125 g ai/ha, 0 = no effect, 100 = complete control, preemergence
[26] = postemergence, 125 g ai/ha, visual rating, scale 0 (no effect) to 100 (complete control)
[27] = postemergence, 500 g ai/ha, visual rating, scale 0 (no effect) to 100 (complete control)
[28] = 125 g ai/ha; 0 = no effect, 100 = complete control; preemergence
[29] = postemergence, 125 g ai/ha; visual rating, scale 0 (no effect) to 100 (complete control)
[30] = postemergence, 500 g ai/ha; visual rating, scale 0 (no effect) to 100 (complete control)

Compound: CCC1=NN(C(C)(C)C)CC1C(=O)Nc1cc(C(=O)N(C)CC)ccc1F (racemic) [Compound 342]
- Plant response rating (0 to 100 scale), Surinam Grass [1, 16]: 50
- Surinam Grass plant response rating [1, 17]: 10
- Plant response rating, Surinam Grass [1, 18]: 100
- Surinam Grass plant response rating [1, 19]: 20
- Plant response rating (0 to 100 scale), Cocklebur [2, 20]: 40
- Cocklebur plant response rating [2, 21]: 10
- Plant response rating, Cocklebur [2, 22]: 90
- Cocklebur plant response rating [2, 23]: 20
- Corn plant response rating [3, 21]: 10
- Corn plant response rating [3, 23]: 30
- Plant response rating (0 to 100 scale), Crabgrass, Large [4, 20]: 40
- Crabgrass, Large plant response rating [4, 21]: 10
- Plant response rating, Crabgrass, Large [4, 22]: 100
- Crabgrass, Large plant response rating [4, 23]: 20
- Plant response rating (0 to 100 scale), Foxtail, Giant [5, 20]: 40
- Foxtail, Giant plant response rating [5, 21]: 20
- Plant response rating, Foxtail, Giant [5, 22]: 90
- Foxtail, Giant plant response rating [5, 23]: 50
- Plant response rating (0 to 100 scale), Lambsquarters [6, 16]: 80
- Lambsquarters plant response rating [6, 17]: 60
- Plant response rating, Lambsquarters [6, 18]: 100
- Lambsquarters plant response rating [6, 19]: 100
- Plant response rating (0 to 100 scale), Morningglory [7, 16]: 10
- Morningglory plant response rating [7, 17]: 30
- Plant response rating, Morningglory [7, 18]: 70
- Morningglory plant response rating [7, 19]: 80
- Plant response rating (0 to 100 scale), Pigweed [8, 16]: 80
- Pigweed plant response rating [8, 17]: 40
- Plant response rating, Pigweed [8, 18]: 100
- Pigweed plant response rating [8, 19]: 80
- Plant response rating (0 to 100 scale), Velvetleaf [9, 16]: 70
- Velvetleaf plant response rating [9, 17]: 20
- Velvetleaf plant response rating [9, 19]: 50
- Blackgrass plant response rating [10, 21]: 20
- Blackgrass plant response rating [10, 23]: 30
- Wheat plant response rating [11, 17]: 0
- Wheat plant response rating [11, 19]: 10
- Oat, Wild plant response rating [12, 17]: 20
- Oat, Wild plant response rating [12, 19]: 30
- Rice plant response rating [13]: 70
- Sedge, Umbrella plant response rating [14]: 70
- Barnyardgrass plant response rating [15]: 90

Compound: CCNC(=O)c1cccc(NC(=O)c2nn(C(C)(C)CC)nc2CC)c1 [Compound 376]
- Plant response rating (0 to 100 scale), Surinam Grass [1, 16]: 40
- Surinam Grass plant response rating [1, 17]: 10
- Surinam Grass plant response rating [1, 24]: 20
- Plant response rating (0 to 100 scale), Cocklebur [2, 20]: 0
- Cocklebur plant response rating [2, 21]: 20
- Cocklebur plant response rating [2, 23]: 30
- Plant response rating (0 to 100 scale), Corn [3, 20]: 40
- Corn plant response rating [3, 21]: 10
- Corn plant response rating [3, 23]: 30
- Plant response rating (0 to 100 scale), Crabgrass, Large [4, 20]: 80
- Crabgrass, Large plant response rating [4, 21]: 10
- Crabgrass, Large plant response rating [4, 23]: 50
- Plant response rating (0 to 100 scale), Foxtail, Giant [5, 20]: 70
- Foxtail, Giant plant response rating [5, 21]: 30
- Foxtail, Giant plant response rating [5, 23]: 60
- Plant response rating (0 to 100 scale), Lambsquarters [6, 16]: 100
- Lambsquarters plant response rating [6, 17]: 70
- Lambsquarters plant response rating [6, 24]: 90
- Plant response rating (0 to 100 scale), Morningglory [7, 16]: 10
- Morningglory plant response rating [7, 17]: 30
- Morningglory plant response rating [7, 24]: 60
- Plant response rating (0 to 100 scale), Pigweed [8, 16]: 100
- Pigweed plant response rating [8, 17]: 70
- Pigweed plant response rating [8, 24]: 90
- Plant response rating (0 to 100 scale), Velvetleaf [9, 16]: 10
- Velvetleaf plant response rating [9, 17]: 20
- Velvetleaf plant response rating [9, 24]: 40
- Blackgrass plant response rating [10, 21]: 10
- Blackgrass plant response rating [10, 23]: 40
- Wheat plant response rating [11, 17]: 10
- Wheat plant response rating ([11]; 500 g ai/ha, scale 0 to 100, 0 no effect, 100 complete control, preemergence): 90
- Wheat plant response rating [11, 24]: 20
- Oat, Wild plant response rating [12, 17]: 20
- Oat, Wild plant response rating [12, 24]: 40
- Rice plant response rating [13]: 60
- Sedge, Umbrella plant response rating [14]: 80
- Barnyardgrass plant response rating [15]: 70

Compound: CCc1nc(C(C)(C)C)sc1C(=O)Nc1cccc(C(=O)NCC2CC2)n1 [Compound 215]
- Surinam Grass plant response rating (0 to 100 scale) [1, 25]: 0
- Plant response rating, Surinam Grass [1, 18]: 70
- Surinam Grass plant response rating [1, 26]: 0
- Surinam Grass plant response rating [1, 27]: 10
- Cocklebur plant response rating (0 to 100 scale) [2, 28]: 0
- Plant response rating, Cocklebur [2, 22]: 0
- Cocklebur plant response rating [2, 29]: 20
- Cocklebur plant response rating [2, 30]: 80
- Corn plant response rating (0 to 100 scale) [3, 28]: 0
- Plant response rating, Corn [3, 22]: 0
- Corn plant response rating [3, 29]: 0
- Corn plant response rating [3, 30]: 10
- Crabgrass, Large plant response rating (0 to 100 scale) [4, 28]: 0
- Plant response rating, Crabgrass, Large [4, 22]: 80
- Crabgrass, Large plant response rating [4, 29]: 0
- Crabgrass, Large plant response rating [4, 30]: 0
- Foxtail, Giant plant response rating (0 to 100 scale) [5, 28]: 0
- Plant response rating, Foxtail, Giant [5, 22]: 80
- Foxtail, Giant plant response rating [5, 29]: 0
- Foxtail, Giant plant response rating [5, 30]: 20
- Lambsquarters plant response rating (0 to 100 scale) [6, 25]: 90
- Plant response rating, Lambsquarters [6, 18]: 100
- Lambsquarters plant response rating [6, 26]: 0
- Lambsquarters plant response rating [6, 27]: 0
- Morningglory plant response rating (0 to 100 scale) [7, 25]: 10
- Plant response rating, Morningglory [7, 18]: 20
- Morningglory plant response rating [7, 26]: 0
- Morningglory plant response rating [7, 27]: 40
- Pigweed plant response rating (0 to 100 scale) [8, 25]: 80
- Plant response rating, Pigweed [8, 18]: 100
- Pigweed plant response rating [8, 26]: 20
- Pigweed plant response rating [8, 27]: 70
- Velvetleaf plant response rating (0 to 100 scale) [9, 25]: 0
- Plant response rating, Velvetleaf [9, 18]: 60
- Velvetleaf plant response rating [9, 26]: 40
- Velvetleaf plant response rating [9, 27]: 60
- Blackgrass plant response rating [10, 29]: 0
- Blackgrass plant response rating [10, 30]: 0
- Wheat plant response rating [11, 26]: 0
- Wheat plant response rating [11, 27]: 20
- Oat, Wild plant response rating [12, 26]: 10
- Oat, Wild plant response rating [12, 27]: 20
- Rice plant response rating ([13]; visual rating, 13 to 15 days): 30
- Sedge, Umbrella plant response rating ([14]; visual rating, 13 to 15 days): 90
- Barnyardgrass plant response rating ([15]; visual rating, 13 to 15 days): 30

Source: patent US20060069132A1, “Azolecarboxamide herbicides” (priority 2004, published 2006)
